Holding throughout (type): physicochemical
Series [1] in a line: Stability of crystal forms of Compound A kept dry at room temperature. The following applies: Kept dry at room temperature for 14 d.
Series [2] in a line: Chemical stability of Crystal form IV of Compound A (influencing factors: high temperature, light exposure, high humidity). From the text:
A sample was investigated under the conditions and sampling time points shown in Table 4 below for influencing factors, and the results are shown in Table 5 below.

Series [3] can be described thus: Slurry competition experiments of crystal forms of Compound A at room temperature. An excerpt:
2. Room temperature competition experiment between Crystal form I and Crystal forms II, III, IV of Compound A, examining the stability of the crystal forms in solvents such as water, ethanol, and water:ethanol (1:1) at room temperature, see Table 2 for details.

The mark [4] stands for this setting: High humidity (92.5% RH), unsealed, 10 d.
Where [5] appears, read: High humidity (92.5% RH), unsealed, 60 d.
Setting [6] is: High temperature, unsealed, 40° C., 10 d.
Where [7] appears, read: High temperature, unsealed, 40° C., 60 d.
Where [8] appears, read: High temperature, unsealed, 60° C., 10 d.
Setting [9] is: High temperature, unsealed, 60° C., 60 d.

For the molecule `CS(=O)(=O)n1cc2c(n1)CN([C@@H]1C[C@H](N)[C@@H](c3cc(F)ccc3F)O[C@@H]1C(F)(F)F)C2` [Crystal form IV of Compound A, (2R,3S,5R,6S)-2-(2,5-difluorophenyl)-5-(2-(methylsulfonyl)-pyrrolo[3,4]pyrazol-5(2H,4H,6H)-yl)-6-(trifluoromethyl)tetrahydro-2H-pyran-3-amine], in series [1], the “Crystal form after transformation” value is listed as “Crystal form IV”. Moreover, the “Stability of crystal form (conclusion in words)” value in series [1] is given as “good stability”. In addition, the Appearance entry in series [2] (0 d) is “Off-white”; in series [2] (setting [4]), “Light yellow”; in series [2] (setting [5]) it was “Light yellow”; in series [2] (setting [6]) it was “Light yellow”; in series [2] (setting [7]), “Light yellow”; in series [2] (setting [8]), “Light yellow”. Besides, the Appearance entry in series [2] (setting [9]) is listed as “Light yellow”; in series [2] (Light exposure, unsealed, 10 d) it was “Off-white”; in series [2] (Light exposure, unsealed, 60 d), “Off-white”. The Moisture came out at 0.19% in series [2] (0 d); 0.27% in series [2] (setting [4]); 0.20% in series [2] (setting [5]); 0.25% in series [2] (setting [6]); 0.18% in series [2] (setting [7]); 0.36% in series [2] (setting [8]). In addition, the Moisture came out at 0.15% in series [2] (setting [9]); 0.32% in series [2] (Light exposure, unsealed, 10 d); 0.16% in series [2] (Light exposure, unsealed, 60 d). For the same molecule, the “Purity of Compound A” value in series [2] (0 d) was 99.67%; in series [2] (setting [4]), 99.57%; in series [2] (setting [5]), 99.28%; in series [2] (setting [6]) it was 99.54%; in series [2] (setting [7]) it was 99.43%; in series [2] (setting [8]), 99.48%. Also, the “Purity of Compound A” value in series [2] (setting [9]) stood at 99.15%; in series [2] (Light exposure, unsealed, 10 d), 99.51%; in series [2] (Light exposure, unsealed, 60 d), 99.43%. The “Relative stability of crystal forms (conclusion in words)” value in series [3] is on record as “the most stable crystal form at room temperature”.
With `CS(=O)(=O)n1cc2c(n1)CN([C@@H]1C[C@H](N)[C@@H](c3cc(F)ccc3F)O[C@@H]1C(F)(F)F)C2` [Crystal form III, (2R,3S,5R,6S)-2-(2,5-difluorophenyl)-5-(2-(methylsulfonyl)pyrrolo[3,4-c]pyrazol-5(2H,4H,6H)-yl)-6-(trifluoromethyl)tetrahydro-2H-pyran-3-amine], in series [1], the “Crystal form after transformation” value is “Crystal form III” and the “Stability of crystal form (conclusion in words)” value is recorded as “good stability”.
In the same order, the values of `CS(=O)(=O)n1cc2c(n1)CN([C@@H]1C[C@H](N)[C@@H](c3cc(F)ccc3F)O[C@@H]1C(F)(F)F)C2` [Crystal form II, (2R,3S,5R,6S)-2-(2,5-difluorophenyl)-5-(2-(methylsulfonyl)pyrrolo[3,4-c]pyrazol-5(2H,4H,6H)-yl)-6-(trifluoromethyl)tetrahydro-2H-pyran-3-amine] are “Crystal form II” and “good stability”.

Values taken from patent US10221185B2, “Crystal form of substituted aminopyran derivativek” (Sichuan Haisco Pharmaceutical Co., Ltd., priority 2015, dated 2019).
